The target in data set [1] is AusA A2 domain (Staphylococcus aureus, UniProt A0A0H3JX00). Put plainly: ATP–PPi exchange kinetic parameters of AusA, A2 domain. It is filed as biochemical.
Data set [2] concerns the target holo–AusA (Staphylococcus aureus, UniProt A0A0H3JX00). The settings on record: for kcat/KM, fold lower than that of L-Tyr: fixed saturating L-Val, ATP, NADPH.
In data set [3] the target is AusA A1 domain (Staphylococcus aureus, UniProt A0A0H3JX00). Put plainly: ATP–PPi exchange kinetic parameters of AusA, A1 domain. The data set is classed as biochemical.
Data set [4] deals with AusA A1/A2 (Staphylococcus aureus, UniProt A0A0H3JX00). Put plainly: ATP–PPi exchange kinetic parameters of AusA, A1/A2 aggregate. The data set is classed as biochemical.
Data set [5] deals with holo–AusA reductase domain. It is filed as biochemical, Staphylococcus aureus. The settings on record: for Aureusimine-A Formation kobs / NADPH Consumption kobs: ATP; for Aureusimine-A Formation kobs: LC-MS.
Data set [6] concerns the target AusA (A1–T1–C–A2–T2–R) (Staphylococcus aureus, UniProt A0A0H3JX00). It is filed as biochemical.
Data set [7] has as its target A1–T1 (Staphylococcus aureus, UniProt A0A0H3JX00). Put plainly: ATP–PPi exchange assay, inhibition of A1–T1 didomain. It is filed as biochemical.
In data set [8] the target is A2–T2–R (Staphylococcus aureus, UniProt A0A0H3JX00). Put plainly: ATP–PPi exchange assay, inhibition of A2–T2–R tridomain. The data set is classed as biochemical.
In data set [9] the test system is calpain. To be noted: cited from earlier work.
The conditions of data set [10]: cited from earlier work.
Data set [11] relates to CC(C)[C@H](N)C(=O)O. Put plainly: ATP–PPi exchange kinetic parameters of AusA, A1 domain. It is filed as biochemical, Staphylococcus aureus. The settings on record: other: varied amino acid, non-varied ATP 3 mM; apparent; pH 8.0; 37.0 °C.
For data set [12], the system named is CC[C@H](C)[C@H](N)C(=O)O. Described as above. The data set is classed as biochemical, Staphylococcus aureus. The settings on record: other: varied amino acid, non-varied ATP 3 mM; apparent; pH 8.0; 37.0 °C.
For data set [13], the system named is CC(C)C[C@H](N)C(=O)O. Put plainly: ATP–PPi exchange kinetic parameters of AusA, A1/A2 aggregate. The data set is classed as biochemical, Staphylococcus aureus. The settings on record: other: non-varied ATP 3 mM; aggregate of A1 and A2; pH 8.0; 37.0 °C.
For data set [14], the system named is N[C@@H](Cc1ccc(O)cc1)C(=O)O. Put plainly: ATP–PPi exchange kinetic parameters of AusA, A2 domain. It is filed as biochemical, Staphylococcus aureus. The settings on record: other: varied amino acid, non-varied ATP 3 mM; apparent; pH 8.0; 37.0 °C.
Data set [15] concerns N[C@@H](Cc1ccccc1)C(=O)O. The data set is described as above. The data set is classed as biochemical, Staphylococcus aureus. To be noted: other: varied amino acid, non-varied ATP 3 mM; apparent; pH 8.0; 37.0 °C.
Data set [16] concerns Nc1ccc(C[C@H](N)C(=O)O)cc1. Described as above. It is filed as biochemical, Staphylococcus aureus. To be noted: other: varied amino acid, non-varied ATP 3 mM; apparent; pH 8.0; 37.0 °C.
Data set [17] deals with Nc1ncnc2c1ncn2[C@@H]1O[C@H](COP(=O)(O)OP(=O)(O)OP(=O)(O)O)[C@@H](O)[C@H]1O. Described as above. The settings on record: other: varied ATP, non-varied L-Phe 30 mM; pH 8.0; 37.0 °C. It is filed as biochemical, Staphylococcus aureus.
Data set [18] shares this test system. Put plainly: purified protein, by the assay type. The settings on record: other: ATP varied, pH 8.0.
The mark [19] stands for this setting: substrates L-Val, NADPH (no L-Tyr).

Values joined by “and” are separate entries in the source; they are usually repeats but may differ in a detail not shown here. Equal values may be shown once. Read-outs that look alike come from different tables or passages of the source. Bounds are passed on as bounds.

Broadly, the Ki is the equilibrium dissociation constant of an inhibitor or competing ligand from its target. A higher Ki goes with lower affinity. The term Km denotes the concentration of substrate that gives half-maximal velocity. A word on the kcat: it is the maximal rate divided by the concentration of active sites. As usually defined, the kcat/Km is the turnover number divided by the Michaelis constant.

As to `Nc1ccc(C[C@H](N)C(=O)O)cc1` [L-4Aph, L-4-aminophenylalanine], in data set [1], the “decrease in kcat relative to L-Tyr” value was 30% and the “increase in KM relative to L-Tyr” value was found to be 31 fold. Besides, the “kcat/KM, fold lower than that of L-Tyr” value in [2] turned out to be 17 fold.

Take `CC[C@H](C)[C@H](N)C(=O)O` [L-Ile]: in data set [3] (in the presence of Phe-AMS), the “exchange rate, fold lower than with L-Val” value is on record as around 10 fold.

Regarding `CC(C)C[C@H](N)C(=O)O` [L-Leu], the “kcat/KM, fold less than the best substrates” value in [4] is recorded as “more than 200 fold”. For the same compound, the “kcat/KM, fold lower than that of L-Tyr” value in data set [2] is on record as 302 fold.

Regarding `N[C@@H](Cc1ccccc1)C(=O)O` [L-Phe], the “kcat/KM, fold lower than that of L-Tyr” value in data set [2] turned out to be 2.8 fold.

Regarding `CC(C)[C@H](N)C(=O)O` [L-Val, L-Valine], the “kcat/KM, fold greater than L-Ile” value in data set [3] is 49 fold.

`NC(=O)C1=CN([C@@H]2O[C@H](COP(=O)(O)OP(=O)(O)OC[C@H]3O[C@@H](n4cnc5c(N)ncnc54)[C@H](O)[C@@H]3O)[C@@H](O)[C@H]2O)C=CC1` [NADH]: the “cofactor use by AusA” value in [5] (data not shown) was “unable to use”.

As for `Nc1ncnc2c1ncn2[C@@H]1O[C@H](COS(=O)(=O)NC(=O)[C@@H](N)Cc2ccccc2)[C@@H](O)[C@H]1O` [Phe-AMS, 5′-O-[N-(phenylalanyl)sulfamoyl]adenosine], the inhibitory constant (Ki) in data set [6] was 0.8 ± 0.5 nM; in [7] it was above 100000 nM; in data set [8], below 4 nM. Moreover, the “effect on amino acid-dependent ATP–PPi exchange activity” value in [6] (100 μM Phe-AMS, with L-Phe, L-4Aph, L-Tyr and L-Met) was “eliminates the enzymatic activity”. In addition, the “inhibition of A1–T1” value in [7] (up to 100 μM) is listed as “little inhibition”. Moreover, the “selectivity factor (A2 over A1–T1)” value in [8] was > 10^4. In data set [5] (L-Tyr reaction, data not shown), the “consumption of NADPH with the A2-specific inhibitor added” value is reported as “not observed”.

In the case of `CC(C)[C@H](N)C(=O)NS(=O)(=O)OC[C@H]1O[C@@H](n2cnc3c(N)ncnc32)[C@H](O)[C@@H]1O` [Val-AMS, 5′-O-[N-(valinyl)sulfamoyl]adenosine], the Ki worked out at 44 ± 7 nM in [6], 63 ± 5 nM in data set [7] and 10000 nM in [8]. For the same compound, the “activity reduction relative to the uninhibited control” value in data set [6] (100 μM Val-AMS, with L-Tyr, L-Phe, L-4Aph and L-Leu, off-target inhibition of A2) is listed as “more than 2 fold”. Besides, in data set [6] (100 μM Val-AMS, with L-Val, L-Ile, L-Cle, L-Ala, L-Cys, L-Tle and L-Met), the “effect on amino acid-dependent ATP–PPi exchange activity” value is on record as “eliminated”. The “selectivity factor Ki(A2-T2-R)/Ki(A1-T1)” value in data set [7] is given as 158.

With `CC(C)c1ncc(Cc2ccc(O)cc2)[nH]c1=O` [compound 1, aureusimine-A], the “Aureusimine-A Formation kobs” value in [5] (substrates L-Tyr, NADPH (no L-Val)) is 0 min⁻¹; in data set [5] (setting [19]) it was 0 min⁻¹; in data set [5] (substrates L-Val, L-Tyr, NADPH, listed as Aureusimine-A) it was 0.28 ± 0.01 min⁻¹; in [5] (substrates L-Val, L-Tyr, NADPH, listed as aureusimine-A), 0.28 min⁻¹.

As for `CC(C)c1ncc(Cc2ccccc2)[nH]c1=O` [compound 2, aureusimine-B], in data set [9], the calpain inhibition activity is ~ 1 μM. For the same compound, the antibacterial activity entry in data set [10] was “no antibacterial activity was observed”.

Turning to “AusA A1 domain (Staphylococcus aureus subsp. aureus Mu50)”, in data set [11], the Km is on record as 3.3 ± 0.1 mM, the kcat amounted to 7.683 ± 0.05 s⁻¹ and the kcat/Km was 2330 ± 72 M⁻¹ s⁻¹. Besides, in data set [12], the Km is 11.9 ± 0.9 mM, the kcat was found to be 0.565 ± 0.0183 s⁻¹ and the kcat/Km turned out to be 47 ± 4 M⁻¹ s⁻¹.

With “AusA A1/A2 (Staphylococcus aureus subsp. aureus Mu50)”, in [13], the Km amounted to 24 ± 3 mM; the kcat is 0.248 ± 0.0167 s⁻¹; the kcat/Km was 10 M⁻¹ s⁻¹ and 10.3 M⁻¹ s⁻¹.

In the case of “AusA A2 domain (Staphylococcus aureus subsp. aureus Mu50)”, the Km in [14] is given as 1.0 ± 0 mM; in [15], 2.1 ± 0.1 mM; in data set [16], 31 ± 1 mM; in data set [17], 3.0 ± 0.5 mM. Besides, the kcat in data set [14] was found to be 2.15 ± 0.0167 s⁻¹; in [15] it was 0.675 ± 0.01 s⁻¹; in data set [16] it was 1.53 ± 0.0333 s⁻¹; in data set [17], 1.05 ± 0.117 s⁻¹. Moreover, the kcat/Km came out at 2150 ± 17 M⁻¹ s⁻¹ in [14], 321 ± 16 M⁻¹ s⁻¹ in [15], 49 ± 2 M⁻¹ s⁻¹ in [16] and 350 ± 70 M⁻¹ s⁻¹ in data set [17].

In the case of NADPH, the “NADPH Consumption kobs” value in [5] (setting [19]) was 0 min⁻¹; in [5] (substrates L-Val, L-Tyr, NADPH, 80 nM holo–AusA, ambient temperature) it was 2.01 min⁻¹ and 2.01 ± 0.05 min⁻¹. In data set [2] (at 0.1 mM NADPH, L-Val, L-Tyr, ATP non-varied), this compound registered a kobs of 0.39 min⁻¹.

For the compound “holo–AusA (Staphylococcus aureus subsp. aureus Mu50)”, the Km is 9.7 mM in data set [18] (L-Leu as the non-varied amino acid) and 0.1 mM in data set [18] (L-Tyr as the non-varied amino acid).

The record behind these values is paper PMC3577359 (Biochemistry, 2013).
